Measurements as given in US12528786B2, “Plasma kallikrein inhibitors” (Merck Sharp & Dohme LLC, priority 2020, dated 2026).

The compounds below were run against T1, Human plasma kallikrein (Homo sapiens, UniProt P03952) (assay: Kallikrein Assay (fluorogenic substrate hydrolysis, AFC release)). Details: purified Human plasma kallikrein 0.5 nM; substrate Acetyl-K—P—R-AFC 100 mM; 50 mM HEPES pH 7.4.
T1 construct: yields a heavy chain (371 amino acids) and a light chain (248 amino acids); purchased Enzyme Research Laboratories
T1 sequence (P03952 391-638 limits assumed): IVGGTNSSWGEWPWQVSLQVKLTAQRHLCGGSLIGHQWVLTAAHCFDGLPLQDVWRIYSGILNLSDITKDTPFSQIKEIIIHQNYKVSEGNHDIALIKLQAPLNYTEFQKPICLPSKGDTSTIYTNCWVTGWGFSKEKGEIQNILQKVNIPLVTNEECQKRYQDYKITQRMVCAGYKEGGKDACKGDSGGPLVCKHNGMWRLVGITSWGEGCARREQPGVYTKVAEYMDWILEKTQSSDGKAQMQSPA
T1 sequence (P03952 20-390 partner limits assumed): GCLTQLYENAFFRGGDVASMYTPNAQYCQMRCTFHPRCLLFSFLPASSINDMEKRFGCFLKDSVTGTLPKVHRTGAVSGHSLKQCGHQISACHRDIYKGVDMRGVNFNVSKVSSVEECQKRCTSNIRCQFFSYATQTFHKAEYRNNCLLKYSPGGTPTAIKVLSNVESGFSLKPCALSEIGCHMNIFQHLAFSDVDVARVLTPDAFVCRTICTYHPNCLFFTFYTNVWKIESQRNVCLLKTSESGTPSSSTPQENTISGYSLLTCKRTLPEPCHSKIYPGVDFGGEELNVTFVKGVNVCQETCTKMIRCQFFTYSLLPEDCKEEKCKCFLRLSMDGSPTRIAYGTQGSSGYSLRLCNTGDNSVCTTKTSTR
Type: biochemical
Method in brief: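 Enzyme–inhibitor equilibrated before substrate dilution to ≤0.2 Km; human plasma kallikrein at 0.5 nM final, Acetyl-K-P-R-AFC substrate, HEPES pH 7.4 buffer with NaCl, CaCl2, PEG 8000, at room temperature or 37° C. Linear-phase fluorescence rate gives percent inhibition, four-parameter logistic IC50, then Cheng-Prusoff Ki.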
Work on `Cc1cc(N2C[C@H]3C[C@H]3C2=O)cnc1C(C)n1cc(C(=O)N[C@H]2C[C@@H](c3cc(Cl)ccc3C#N)C2)nn1` (single isomer, unassigned) [Example 91, N-((cis)-3-(5-chloro-2-cyanophenyl)cyclobutyl)-1-((S or R)-1-(3-methyl-5-((1R,5S)-2-oxo-3-azabicyclo[3.1.0]hexan-3-yl)pyridin-2-yl)ethyl)-1H-1,2,3-triazole-4-carboxamide] yielded an IC50 of 1.5 nM. In the case of `CC(c1ncc(N2C[C@H]3C[C@H]3C2=O)cc1F)n1cc(C(=O)N[C@H]2C[C@@H](c3cc(Cl)ccc3C#N)C2)nn1` (single isomer, unassigned) [Example 92, N-((cis)-3-(5-chloro-2-cyanophenyl)cyclobutyl)-1-((R or S)-1-(3-fluoro-5-((1R,5S)-2-oxo-3-azabicyclo[3.1.0]hexan-3-yl)pyridin-2-yl)ethyl)-1H-1,2,3-triazole-4-carboxamide], the IC50 is reported as 38.1 nM. Compound `CC(c1ncc(N2C[C@H]3C[C@H]3C2=O)cc1F)n1cc(C(=O)N[C@H]2C[C@@H](c3cc(Cl)ccc3C#N)C2)nn1` (single isomer, unassigned) [Example 93, N-((cis)-3-(5-chloro-2-cyanophenyl)cyclobutyl)-1-((S or R)-1-(3-fluoro-5-((1R,5S)-2-oxo-3-azabicyclo[3.1.0]hexan-3-yl)pyridin-2-yl)ethyl)-1H-1,2,3-triazole-4-carboxamide] has an IC50 of 4.3 nM. In the case of `Cc1nc(N2C[C@H]3C[C@H]3C2=O)ccc1C(C)n1cc(C(=O)N[C@H]2C[C@@H](c3cc(Cl)ccc3C#N)C2)nn1` (single isomer, unassigned) [Example 94, N-((cis)-3-(5-chloro-2-cyanophenyl)cyclobutyl)-1-((R or S)-1-(2-methyl-6-((1R,5S)-2-oxo-3-azabicyclo[3.1.0]hexan-3-yl)pyridin-3-yl)ethyl)-1H-1,2,3-triazole-4-carboxamide], the IC50 is reported as 178 nM. In the case of `Cc1nc(N2C[C@H]3C[C@H]3C2=O)ccc1C(C)n1cc(C(=O)N[C@H]2C[C@@H](c3cc(Cl)ccc3C#N)C2)nn1` (single isomer, unassigned) [Example 95, N-((cis)-3-(5-chloro-2-cyanophenyl)cyclobutyl)-1-((S or R)-1-(2-methyl-6-((1R,5S)-2-oxo-3-azabicyclo[3.1.0]hexan-3-yl)pyridin-3-yl)ethyl)-1H-1,2,3-triazole-4-carboxamide], the IC50 is reported as 10.7 nM. `Cc1c(C(C)n2cc(C(=O)N[C@H]3C[C@@H](c4cc(Cl)ccc4C#N)C3)nn2)cnc(N2C[C@H]3C[C@H]3C2=O)c1F` (single isomer, unassigned) [Example 96, N-((cis)-3-(5-chloro-2-cyanophenyl)cyclobutyl)-1-((R or S)-1-(5-fluoro-4-methyl-6-((1R,5S)-2-oxo-3-azabicyclo[3.1.0]hexan-3-yl)pyridin-3-yl)ethyl)-1H-1,2,3-triazole-4-carboxamide] gave an IC50 of 0.2 nM. Compound `Cc1c(C(C)n2cc(C(=O)N[C@H]3C[C@@H](c4cc(Cl)ccc4C#N)C3)nn2)cnc(N2C[C@H]3C[C@H]3C2=O)c1F` (single isomer, unassigned) [Example 97, N-((cis)-3-(5-chloro-2-cyanophenyl)cyclobutyl)-1-((S or R)-1-(5-fluoro-4-methyl-6-((1R,5S)-2-oxo-3-azabicyclo[3.1.0]hexan-3-yl)pyridin-3-yl)ethyl)-1H-1,2,3-triazole-4-carboxamide] has an IC50 of 4.4 nM. `Cc1ccc(C#N)c([C@H]2C[C@@H](NC(=O)c3cn(C(C)c4cnc(N5C[C@H]6C[C@H]6C5=O)c(C)c4C)nn3)C2)n1` (single isomer, unassigned) [Example 98, N-((cis)-3-(3-cyano-6-methylpyridin-2-yl)cyclobutyl)-1-((R or S)-1-(4,5-dimethyl-6-((1R,5S)-2-oxo-3-azabicyclo[3.1.0]hexan-3-yl)pyridin-3-yl)ethyl)-1H-1,2,3-triazole-4-carboxamide] showed an IC50 of 27.5 nM. Work on `Cc1ccc(C#N)c([C@H]2C[C@@H](NC(=O)c3cn(C(C)c4cnc(N5C[C@H]6C[C@H]6C5=O)c(C)c4C)nn3)C2)n1` (single isomer, unassigned) [Example 99, N-((cis)-3-(3-cyano-6-methylpyridin-2-yl)cyclobutyl)-1-((S or R)-1-(4,5-dimethyl-6-((1R,5S)-2-oxo-3-azabicyclo[3.1.0]hexan-3-yl)pyridin-3-yl)ethyl)-1H-1,2,3-triazole-4-carboxamide] yielded an IC50 of 0.6 nM. For `COc1cc(C(C)n2cc(C(=O)N[C@H]3C[C@@H](c4cc(Cl)ccc4C#N)C3)nn2)cnc1N1C[C@H]2C[C@H]2C1=O` (single isomer, unassigned) [Example 101, N-((cis)-3-(5-chloro-2-cyanophenyl)cyclobutyl)-1-((R or S)-1-(5-methoxy-6-((1R,5S)-2-oxo-3-azabicyclo[3.1.0]hexan-3-yl)pyridin-3-yl)ethyl)-1H-1,2,3-triazole-4-carboxamide], the IC50 was 1.8 nM. Compound `COc1cc(C(C)n2cc(C(=O)N[C@H]3C[C@@H](c4cc(Cl)ccc4C#N)C3)nn2)cnc1N1C[C@H]2C[C@H]2C1=O` (single isomer, unassigned) [Example 102, N-((cis)-3-(5-chloro-2-cyanophenyl)cyclobutyl)-1-((S or R)-1-(5-methoxy-6-((1R,5S)-2-oxo-3-azabicyclo[3.1.0]hexan-3-yl)pyridin-3-yl)ethyl)-1H-1,2,3-triazole-4-carboxamide] has an IC50 of 3.2 nM. `CC(c1cnc(N2C[C@H]3C[C@H]3C2=O)c(F)c1)n1cc(C(=O)N[C@H]2C[C@@H](c3cc(Cl)ccc3C#N)C2)nn1` (single isomer, unassigned) [Example 103, N-((cis)-3-(5-chloro-2-cyanophenyl)cyclobutyl)-1-((R or S)-1-(5-fluoro-6-((1R,5S)-2-oxo-3-azabicyclo[3.1.0]hexan-3-yl)pyridin-3-yl)ethyl)-1H-1,2,3-triazole-4-carboxamide] showed an IC50 of 2.1 nM. `CC(c1cnc(N2C[C@H]3C[C@H]3C2=O)c(F)c1)n1cc(C(=O)N[C@H]2C[C@@H](c3cc(Cl)ccc3C#N)C2)nn1` (single isomer, unassigned) [Example 104, N-((cis)-3-(5-chloro-2-cyanophenyl)cyclobutyl)-1-((S or R)-1-(5-fluoro-6-((1R,5S)-2-oxo-3-azabicyclo[3.1.0]hexan-3-yl)pyridin-3-yl)ethyl)-1H-1,2,3-triazole-4-carboxamide] showed an IC50 of 4.3 nM. `COc1cc(C(C)n2cc(C(=O)N[C@H]3C[C@@](C)(c4cc(Cl)ccc4C#N)C3)nn2)cnc1N1C[C@H]2C[C@H]2C1=O` (single isomer, unassigned) [Example 105, N-((cis)-3-(5-chloro-2-cyanophenyl)-3-methylcyclobutyl)-1-((R or S)-1-(5-methoxy-6-((1R,5S)-2-oxo-3-azabicyclo[3.1.0]hexan-3-yl)pyridin-3-yl)ethyl)-1H-1,2,3-triazole-4-carboxamide] was tested, and the IC50 was 0.6 nM. For `COc1cc(C(C)n2cc(C(=O)N[C@H]3C[C@@](C)(c4cc(Cl)ccc4C#N)C3)nn2)cnc1N1C[C@H]2C[C@H]2C1=O` (single isomer, unassigned) [Example 106, N-((cis)-3-(5-chloro-2-cyanophenyl)-3-methylcyclobutyl)-1-((S or R)-1-(5-methoxy-6-((1R,5S)-2-oxo-3-azabicyclo[3.1.0]hexan-3-yl)pyridin-3-yl)ethyl)-1H-1,2,3-triazole-4-carboxamide], the IC50 was 2.2 nM. Work on `CC(c1cnc(N2C[C@H]3C[C@H]3C2=O)c(N)c1)n1cc(C(=O)N[C@H]2C[C@@H](c3cc(Cl)ccc3C#N)C2)nn1` (single isomer, unassigned) [Example 107, 1-((R or S)-1-(5-amino-6-((1R,5S)-2-oxo-3-azabicyclo[3.1.0]hexan-3-yl)pyridin-3-yl)ethyl)-N-((cis)-3-(5-chloro-2-cyanophenyl)cyclobutyl)-1H-1,2,3-triazole-4-carboxamide] yielded an IC50 of 4.8 nM. `CC(c1cnc(N2C[C@H]3C[C@H]3C2=O)c(N)c1)n1cc(C(=O)N[C@H]2C[C@@H](c3cc(Cl)ccc3C#N)C2)nn1` (single isomer, unassigned) [Example 108, 1-((S or R)-1-(5-amino-6-((1R,5S)-2-oxo-3-azabicyclo[3.1.0]hexan-3-yl)pyridin-3-yl)ethyl)-N-((cis)-3-(5-chloro-2-cyanophenyl)cyclobutyl)-1H-1,2,3-triazole-4-carboxamide] showed an IC50 of 6.5 nM. `Cc1nc(C(C)n2cc(C(=O)N[C@H]3C[C@@](C)(c4cc(Cl)ccc4C#N)C3)nn2)cnc1N1C[C@H]2C[C@H]2C1=O` (single isomer, unassigned) [Example 109, N-((cis)-3-(5-chloro-2-cyanophenyl)-3-methylcyclobutyl)-1-((R or S)-1-(6-methyl-5-((1R,5S)-2-oxo-3-azabicyclo[3.1.0]hexan-3-yl)pyrazin-2-yl)ethyl)-1H-1,2,3-triazole-4-carboxamide] was tested, and the IC50 was 0.2 nM. In the case of `Cc1nc(C(C)n2cc(C(=O)N[C@H]3C[C@@](C)(c4cc(Cl)ccc4C#N)C3)nn2)cnc1N1C[C@H]2C[C@H]2C1=O` (single isomer, unassigned) [Example 110, N-((cis)-3-(5-chloro-2-cyanophenyl)-3-methylcyclobutyl)-1-((S or R)-1-(6-methyl-5-((1R,5S)-2-oxo-3-azabicyclo[3.1.0]hexan-3-yl)pyrazin-2-yl)ethyl)-1H-1,2,3-triazole-4-carboxamide], the IC50 is reported as 1.1 nM. Compound `COc1c(N2C[C@H]3C[C@H]3C2=O)ncc(C(C)n2cc(C(=O)N[C@H]3C[C@@H](c4cc(Cl)ccc4C#N)C3)nn2)c1C` (single isomer, unassigned) [Example 111, N-((cis)-3-(5-chloro-2-cyanophenyl)cyclobutyl)-1-((R or S)-1-(5-methoxy-4-methyl-6-((1R,5S)-2-oxo-3-azabicyclo[3.1.0]hexan-3-yl)pyridin-3-yl)ethyl)-1H-1,2,3-triazole-4-carboxamide] has an IC50 of 0.3 nM.
